Among the data in patent US20090270435A1 (priority 2006, published 2009) are IC50 values, retold here.

Where a name gives a salt, the structure may show the parent alone. Bounds are passed on as bounds.

The first assay deals with T1, ACC1 from rat liver (Rattus norvegicus, UniProt P11497).
T1 construct: The livers (for ACC1 preparation) or skeletal muscle tissue (for ACC2 preparation) are removed; from tissue; host or cells: liver of male CD rats (fasted, then fed a high sucrose diet)
Nature of the assay: Direct inhibition of ACC1 activity (14C-bicarbonate incorporation). In kind it is biochemical. The note with it: ACC1 from rat liver. As for the experimental part:
[1] Preparation of ACC1 and ACC2.
Male CD rats weighing 150-200 g are fasted for 2 days and then fed a high sucrose diet (AIN-76A rodent diet; Cat # D10001, Research Diets Inc., New Brunswick, N.J.), for 3 days at which time they are sacrificed by CO2 asphyxiation. The livers (for ACC1 preparation) or skeletal muscle tissue (for ACC2 preparation) are removed, rinsed in ice-cold phosphate-buffered saline (PBS), and homogenized in 5 volumes of homogenization buffer (50 mM potassium phosphate, pH 7.5, 10 mM EDTA, 10 mM 2-mercaptoethanol, 2 mM benzamidine, 0.2 mM phenylmethylsulfonylfluoride (PMSF), 5 mg/L each leupeptin, aprotinin, and antitrypsin) in a Waring® blender for 1 minute at 4° C. All subsequent operations are carried out at 4° C. The homogenate is made 3% with respect to polyethylene glycol (PEG) by the addition of 50% PEG solution and centrifuged at 20,000×g for 15 minutes. The resulting supernatant is adjusted to 5% PEG with the addition of 50% PEG solution and stirred for 5 minutes. The pellet (contains ACC activity) is collected by centrifugation at 20,000×g for 20 minutes, rinsed with Ice-cold doubly distilled water to remove excess PEG and re-suspended in one-fourth the original homogenate volume with homogenization buffer. Ammonium sulfate (200 g/liter) is slowly added with stirring. After 45 minutes the enzyme is collected by centrifugation for 30 minutes at 20,000×g, re-suspended in 10 ml of 50 mM HEPES, pH7.5, 0.1 mM DTT, 1.0 mM EDTA, and 10% glycerol and desalted on a Sephadex™ G-25 column (2.5 cm-x 50 cm) (Pharmacia, Piscataway N.J. now GE Healthcare) […] equilibrated with the same buffer. The desalted enzyme preparation is stored in aliquots at −70° C. Immediately prior to use, frozen ACC1 or ACC2 aliquots are thawed, diluted to 500 μg/ml in buffer containing 50 mM HEPES, pH7.5, 1.0 mM MgCl2, 10 mM tripotassium citrate, 2.0 mM dithiothreitol (DTT), and 0.75 mg/ml fatty acid-free bovine serum albumin (BSA) and pre-incubated at 37° C. for 30 minutes.
[2] Measurement of ACC inhibition. The procedures for measuring ACC1 inhibition and ACC2 inhibition are identical except for the source of the isozyme. For measurement of ACC activity and assessment of ACC inhibition, test compounds are dissolved in dimethylsulfoxide (DMSO) and 1 μL aliquots are placed in 0.5 ml polypropylene tubes. Control tubes contain 1 μL of DMSO alone. Tubes are incubated at 37° C. in a constant temperature water bath. […] The reaction is then initiated by the addition of 10 μL of preincubated ACC fraction prepared as described above. After 7 minutes the reaction is terminated by the addition of 50 μL of 6N HCl and a 150 μL aliquot of the reaction mixture is transferred to glass scintillation vials and evaporated to dryness at 90° C. for at least 1 hour. The dried vials are then cooled, 0.5 ml of water and 5.5 ml of Ready Safe liquid scintillation fluid (Beckman Coulter Inc., Fullerton, Calif.) are added, and the radioactivity is determined using a liquid scintillation counter. Tubes that received HCl before ACC served as blanks.
For orientation: IC50 means the point on the concentration scale where inhibition reaches its midpoint. In turn, `Cc1cc2c(cc1C)C(=O)CC1(CCN(C(=O)c3ccc4c(c3)[nH]c(=O)n4C)CC1)O2` [Ex. L32, 6,7-dimethyl-1′-[(1-methyl-2-oxo-2,3-dihydro-1H-benzimidazol-5-yl)carbonyl]spiro[chromene-2,4′-piperidin]-4(3H)-one] came in with an IC50 of 190 nM. `COc1ccc2c(c1)C(=O)CC1(CCN(C(=O)c3cccc4cn[nH]c34)CC1)O2` [Ex. H7] registered an IC50 of 562 nM. Take `Cc1cc(C(=O)N2CCC3(CC2)CC(=O)c2ccc(C#N)cc2O3)cc2cn[nH]c12` [Ex. A32, 1′-[(7-methyl-1H-indazol-5-yl)carbonyl]H-oxo-3,4-dihydrospiro[chromene-2,4′-piperidine]-7-carbonitrile]: 277 nM corresponded to half-maximal inhibition (IC50).

Regarding `Cc1cc2c(cc1C)C(=O)CC1(CCN(C(=O)c3ccc4nccnc4c3)CC1)O2` [Ex. L45, 6,7-dimethyl-1′-(quinoxalin-6-ylcarbonyl)spiro[chromene-2,4′-piperidin]-4(3H)-one], the IC50 was below 3000 nM. `O=C1CC2(CCN(C(=O)c3cccc4cn[nH]c34)CC2)Oc2cc(-c3ccccc3)ccc21` [Ex. H18, 1′-(1H-indazol-7-ylcarbonyl)-7-phenylspiro[chromene-2,4′-piperidin]-4(3H)-one] showed an IC50 of 2210 nM. `O=C1CC2(CCN(C(=O)c3cccc4cn[nH]c34)CC2)Oc2ccccc21`: the concentration for half-maximal inhibition (IC50) was above 3000 nM.

`Cc1cc2c(cc1C)C(=O)CC1(CCN(C(=O)c3cccc4[nH]cnc34)CC1)O2` [Ex. L17, 1′-(1H-benzimidazol-4-ylcarbonyl)-6,7-dimethylspiro[chromene-2,4′-piperidin]-4(3H)-one trifluoroacetic acid salt] returned an IC50 of 885 nM. As for `COc1ccc2c(c1)C(=O)CC1(CCN(C(=O)c3ccc4c(cnn4C)c3)CC1)O2` [Ex. D2, 6-methoxy-1′-[(1-methyl-1H-indazol-5-yl)carbonyl]spiro[chromene-2,4′-piperidin]-4(3H)-one], the 50% inhibitory concentration (IC50) turned out to be 216 nM. This IC50 is about 4.1-fold lower than that of the compound before. For `Cc1cc(C(=O)N2CCC3(CC2)CC(=O)c2ccc(-c4ccccc4)cc2O3)cc2cn[nH]c12` [Ex. A34, 1′-[(7-methyl-1H-indazol-5-yl)carbonyl]-7-phenylspiro[chromene-2,4′-piperidin]-4(3H)-one], it took 395 nM to reach half-maximal inhibition (IC50). This IC50 is about 1.8-fold higher than that of the compound before. In the case of `O=C1CC2(CCN(C(=O)c3cccc4cn[nH]c34)CC2)Oc2ccc(Cl)cc21` [Ex. H14, 6-chloro-1′-(1H-indazol-7-ylcarbonyl)spiro[chromene-2,4′-piperidin]-4(3H)-one], half-maximal inhibition (IC50) was put at 1390 nM.

`Cc1cc2c(cc1C)C(=O)CC1(CCN(C(=O)c3ccc4c(c3)nc(C)n4C)CC1)O2` [Ex. L28, 1′-[(1,2-dimethyl-1H-benzimidazol-5-yl)carbonyl]-6,7-dimethylspiro[chromene-2,4′-piperidin]-4(3H)-one]: the IC50 stood at 3150 nM. With `COc1cc(Cl)cc2c1C(=O)CC1(CCN(C(=O)c3cc(C)c4[nH]ncc4c3)CC1)O2` [Ex. A19, 7-chloro-5-methoxy-1′-[(7-methyl-1H-indazol-5-yl)carbonyl]spiro[chromene-2,4′-piperidin]-4(3H)-one], half-maximal inhibition (IC50) was put at 81.5 nM. Against the preceding compound, the IC50 is about 39-fold lower. Still for that read-out and setting: the figure for `Cc1nc2c(C(=O)N3CCC4(CC3)CC(=O)c3cc(C)c(C)cc3O4)cccc2[nH]1` [Ex. L19, 6,7-dimethyl-1′-[(2-methyl-1H-benzimidazol-4-yl)carbonyl]spiro[chromene-2,4′-piperidin]-4(3H)-one trifluoroacetic acid salt] is below 3000 nM. Compound `Cc1n[nH]c2cc(C(=O)N3CCC4(CC3)CC(=O)c3cc(C(=O)O)ccc3O4)ccc12` [Ex. F5, 1′-[(3-methyl-1H-indazol-6-yl)carbonyl]-4-oxo-3,4-dihydrospiro[chromene-2,4′-piperidine]-6-carboxylic acid trifluoroacetic acid salt] showed an IC50 of 586 nM. Same read-out and setting: the figure for `N#Cc1ccc2c(c1)C(=O)CC1(CCN(C(=O)c3cc(Cl)c4[nH]ncc4c3)CC1)O2` [Ex. B14, 1′-[(7-chloro-1H-indazol-5-yl)carbonyl]-4-oxo-3,4-dihydrospiro[chromene-2,4-piperidine]carbonitrile] is 331 nM; for `Cc1cc2c(cc1C)C(=O)CC1(CCN(C(=O)c3cc(C)c4[nH]ncc4c3)CC1)O2` [Ex. A2, 6,7-dimethyl-1′-[(7-methyl-1H-indazol-5-yl)carbonyl]spiro-[chromene-2,4′-piperidin]-4(3H)-one trifluoroacetic acid salt] it is 30.1 nM. `Cc1cc2c(cc1C)C(=O)CC1(CCN(C(=O)c3ccc4[nH]c(C(F)(F)F)nc4c3)CC1)O2` [Ex. L25, 6,7-dimethyl-1′-{[2-(trifluoromethyl)-1H-benzimidazol-5-yl]carbonyl}spiro[chromene-2,4′-piperidin]-4(3H)-one trifluoroacetic acid salt] displayed an IC50 of 613 nM. For the compound `Cc1cc2c(cc1C)C(=O)CC1(CCN(C(=O)c3ccc4cnn(C)c4c3)CC1)O2` [Ex. G2, 6,7-dimethyl-1′-[(1-methyl-1H-indazol-6-yl)carbonyl]spiro[chromene-2,4′-piperidin]-4(3H)-one], the IC50 amounted to 167 nM. Regarding `COC(=O)c1ccc2c(c1)C(=O)CC1(CCN(C(=O)c3cc(C)c4[nH]ncc4c3)CC1)O2` [Ex. A11, methyl 1-[(7-methyl-1H-indazol-5-yl)carbonyl]-4-oxo-3,4-dihydrospiro[chromene-2,4-piperidine]-6-carboxylate], the IC50 is 40 nM. Turning to `Cc1cc2c(cc1C)C(=O)CC1(CCN(C(=O)c3ccc4cc[nH]c4c3)CC1)O2` [Ex. L2, 1′-(1H-indol-6-ylcarbonyl)-6,7-dimethylspiro[chromene-2,4′-piperidin]-4(3H)-one trifluoroacetic acid salt], the IC50 amounted to 155 nM. This IC50 is about 3.9-fold higher than that of the compound before.

Still in this assay, the particulars now being: Table of Examples M1-M36.
In the case of `O=C1CC2(CCN(C(=O)c3cccc(-c4cc[nH]n4)c3)CC2)Oc2cc(Cl)ccc21` [Ex. M15, 7-chloro-1′-[3-(1H-pyrazol-3-yl)benzoyl]spiro[chromene-2,4′-piperidin]-4(3H)-one], half-maximal inhibition (IC50) required 233 nM.

`CNC(=O)c1ccc2c(c1)C(=O)CC1(CCN(C(=O)c3cccc(-c4cc[nH]n4)c3)CC1)O2` [Ex. M4, N-methyl-4-oxo-1′-[3-(1H-pyrazol-3-yl)benzoyl]-3,4-dihydrospiro[chromene-2,4′-piperidine]-6-carboxamide] displayed an IC50 of 110 nM. For `COc1ccc2c(c1)OC1(CCN(C(=O)c3cccc(-c4cc[nH]n4)c3)CC1)CC2=O` [Ex. M25, 7-methoxy-1′-[3-(1H-pyrazol-3-yl)benzoyl]spiro[chromene-2,4′-piperidin]-4(3H)-one], 481 nM corresponded to half-maximal inhibition (IC50). Compared with the last compound, the IC50 is about 4.4-fold higher. Same read-out and setting: the figure for `NC(=O)c1ccc2c(c1)C(=O)CC1(CCN(C(=O)c3cccc(-c4cc[nH]n4)c3)CC1)O2` [Ex. M5, 4-oxo-1′-[3-(1H-pyrazol-3-yl)benzoyl]-3,4-dihydrospiro[chromene-2,4′-piperidine]-6-carboxamide] is 118 nM.

As for `Cc1ccc2c(c1)OC1(CCN(C(=O)c3cccc(-c4cc[nH]n4)c3)CC1)CC2=O` [Ex. M12, 7-methyl-1′-[3-(1H-pyrazol-3-yl)benzoyl]spiro[chromene-2,4′-piperidin]-4(3H)-one], the midpoint of inhibition, the IC50, lay at 205 nM.

As for `O=C1CC2(CCN(C(=O)c3cccc(-c4cc[nH]n4)c3)CC2)Oc2ccc(C(=O)N3CCOCC3)cc21` [Ex. M32, 6-(morpholin-4-ylcarbonyl)-1′-[3-(1H-pyrazol-3-yl)benzoyl]spiro[chromene-2,4′-piperidin]-4(3H)-one], the midpoint of inhibition, the IC50, lay at 737 nM.

Staying with this assay, now noted: Table of Examples O1-O4.
Regarding `COc1cc(Cl)c2c(c1)OC1(CCN(C(=O)c3cccc(-c4ccn[nH]4)c3)CC1)CC2=O` [Ex. O2, 5-chloro-7-methoxy-1′-[3-(1H-pyrazol-5-yl)benzoyl]spiro[chromene-2,4′-piperidin]-4(3H)-one], half-maximal inhibition (IC50) required 55 nM. This counts as double-digit nanomolar.
